Target: T1, human TLR7 (Homo sapiens, UniProt Q9NYK1)
T1 sequence (Q9NYK1 27-1049): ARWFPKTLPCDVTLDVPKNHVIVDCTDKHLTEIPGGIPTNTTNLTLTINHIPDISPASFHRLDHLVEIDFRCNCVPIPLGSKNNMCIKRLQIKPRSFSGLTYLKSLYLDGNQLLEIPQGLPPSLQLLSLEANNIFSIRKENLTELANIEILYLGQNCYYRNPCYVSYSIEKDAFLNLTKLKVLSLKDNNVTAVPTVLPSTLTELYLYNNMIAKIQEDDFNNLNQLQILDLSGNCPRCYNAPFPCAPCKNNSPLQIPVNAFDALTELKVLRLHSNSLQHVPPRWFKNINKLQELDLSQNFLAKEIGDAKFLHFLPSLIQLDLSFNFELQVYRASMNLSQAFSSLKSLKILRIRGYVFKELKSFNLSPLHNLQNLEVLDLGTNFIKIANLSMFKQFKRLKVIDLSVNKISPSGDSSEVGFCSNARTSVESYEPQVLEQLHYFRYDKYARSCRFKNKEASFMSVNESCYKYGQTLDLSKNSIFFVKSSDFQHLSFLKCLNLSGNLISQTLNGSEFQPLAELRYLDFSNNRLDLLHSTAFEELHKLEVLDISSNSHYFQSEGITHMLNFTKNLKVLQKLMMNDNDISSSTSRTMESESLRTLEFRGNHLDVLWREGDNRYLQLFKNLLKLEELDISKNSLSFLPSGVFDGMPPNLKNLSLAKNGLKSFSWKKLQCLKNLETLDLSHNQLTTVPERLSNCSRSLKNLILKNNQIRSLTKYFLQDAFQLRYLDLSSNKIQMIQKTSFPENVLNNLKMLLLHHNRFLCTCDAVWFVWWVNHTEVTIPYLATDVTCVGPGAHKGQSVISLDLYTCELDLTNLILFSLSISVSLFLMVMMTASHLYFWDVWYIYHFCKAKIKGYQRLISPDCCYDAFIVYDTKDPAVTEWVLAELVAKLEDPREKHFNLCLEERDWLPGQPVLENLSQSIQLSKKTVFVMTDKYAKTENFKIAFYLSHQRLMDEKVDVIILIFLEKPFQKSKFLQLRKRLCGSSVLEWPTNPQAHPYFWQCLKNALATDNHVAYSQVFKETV
Test: HEK293-Blue-hTLR-7 cells assay (SEAP reporter, R848 stimulation)
Format: cell-based
Details: HEK293-Blue-hTLR7 cells, R848 ligand, 20 h incubation
Description: The following tests were carried out in order to determine the activity of the compounds of formula (I) in HEK293-Blue-hTLR-7/8/9 cells assay.
HEK293-Blue-hTLR-7 Cells Assay:
A stable HEK293-Blue-hTLR-7 cell line was purchased from InvivoGen (Cat. #: hkb-htlr7, San Diego, Calif., USA). These cells were originally designed for studying the stimulation of human TLR7 by monitoring the activation of NF-κB. A SEAP (secreted embryonic alkaline phosphatase) reporter gene was placed under the control of the IFN-β minimal promoter fused to five NF-κB and AP-1-binding sites. The SEAP was induced by activating NF-κB and AP-1 via stimulating HEK-Blue hTLR7 cells with TLR7 ligands. Therefore the reporter expression was declined by TLR7 antagonist under the stimulation of a ligand, such as R848 (Resiquimod), for incubation of 20 h. The cell culture supernatant SEAP reporter activity was determined using QUANTI-Blue™ kit (Cat. #: rep-qb1, Invivogen, San Diego, Calif., USA) at a wavelength of 640 nm, a detection medium that turns purple or blue in the presence of alkaline phosphatase.
HEK293-Blue-hTLR7 cells were incubated at a density of 250,000˜450,000 cells/mL in a volume of 170 μL in a 96-well plate in Dulbecco's Modified Eagle's medium (DMEM) containing 4.5 g/L glucose, 50 U/mL penicillin, […], […], 2 mM L-glutamine, 10% (v/v) heat-inactivated fetal bovine serum with addition of 20 μL test compound in a serial dilution in the presence of final DMSO at 1% and 10 μL of 20 uM R848 in above DMEM, perform incubation under 37° C. in a CO2 incubator for 20 h. Then 20 μL of the supernatant from each well was incubated with 180 μL Quanti-blue substrate solution at 37° C. for 2 h and the absorbance was read at 620-655 nm using a spectrophotometer. The signalling pathway that TLR7 activation leads to downstream NF-κB activation has been widely accepted, and therefore similar reporter assay was modified for evaluating TLR7 antagonist.

SMILES | IC50 [nM]
C[C@@H]1CN(c2ccc(C#N)c3ncccc23)C[C@H](C2=Nc3cccc(N4CCC5(CCNC5)C4)c3CN2)O1 (stereo partly drawn) [Example 13, 5-[(2R,6R)-2-[5-(2,7-diazaspiro[4.4]nonan-2-yl)-3,4-dihydroquinazolin-2-yl]-6-methyl-morpholin-4-yl]quinoline-8-carbonitrile] | 294
C[C@@H]1CN(c2ccc(C#N)c3ncccc23)C[C@H](C2=Nc3cccc(C4=CCNCC4)c3CCN2)O1 [Example 16, 5-[(2R,6R)-2-methyl-6-[6-(1,2,3,6-tetrahydropyridin-4-yl)-4,5-dihydro-3H-1,3-benzodiazepin-2-yl]morpholin-4-yl]quinoline-8-carbonitrile] | 251
C[C@@H]1CN(c2ccc(C#N)c3ncccc23)C[C@H](C2=Nc3ccc(N4CCNCC4)cc3CCN2)O1 [Example 17, 5-[(2R,6R)-2-methyl-6-(7-piperazin-1-yl-4,5-dihydro-3H-1,3-benzodiazepin-2-yl)morpholin-4-yl]quinoline-8-carbonitrile] | 362
C[C@@H]1CN(c2ccc(C#N)c3ncccc23)C[C@H](C2=Nc3cccc(C4CCNCC4)c3CN2)O1 [Example 18, 5-[(2R,6R)-2-methyl-6-[5-(4-piperidyl)-3,4-dihydroquinazolin-2-yl]morpholin-4-yl]quinoline-8-carbonitrile] | 130

The next molecules have a lower IC50 than those just listed; values first:

IC50 [nM] | SMILES
40 | C[C@@H]1CN(c2ccc(C#N)c3ncccc23)C[C@H](C2=Nc3cccc(N4CCNCC4)c3CN2)O1 [Example 6, 5-[(2R,6R)-2-methyl-6-(5-piperazin-1-yl-3,4-dihydroquinazolin-2-yl)morpholin-4-yl]quinoline-8-carbonitrile]
12 | C[C@@H]1CN(c2ccc(C#N)c3ncccc23)C[C@H](C2=Nc3ccc(N4CCNCC4)cc3CN2)O1 [Example 7, 5-[(2R,6R)-2-methyl-6-(6-piperazin-1-yl-3,4-dihydroquinazolin-2-yl)morpholin-4-yl]quinoline-8-carbonitrile]
18 | C[C@@H]1CN(c2ccc(C#N)c3ncccc23)C[C@H](C2=Nc3cc(N4CCNCC4)ccc3CN2)O1 [Example 8, 5-[(2R,6R)-2-methyl-6-(7-piperazin-1-yl-3,4-dihydroquinazolin-2-yl)morpholin-4-yl]quinoline-8-carbonitrile]
36 | C[C@@H]1CN(c2ccc(C#N)c3ncccc23)C[C@H](C2=Nc3c(cccc3N3CCNCC3)CN2)O1 [Example 9, 5-[(2R,6R)-2-methyl-6-(8-piperazin-1-yl-3,4-dihydroquinazolin-2-yl)morpholin-4-yl]quinoline-8-carbonitrile]
83 | C[C@@H]1CN(c2ccc(C#N)c3ncccc23)C[C@H](C2=Nc3cccc(N4CCN(C)CC4)c3CN2)O1 [Example 12, 5-[(2R,6R)-2-methyl-6-[5-(4-methylpiperazin-1-yl)-3,4-dihydroquinazolin-2-yl]morpholin-4-yl]quinoline-8-carbonitrile]

Source: US11548884B2, “Cyclic amidine compounds for the treatment of autoimmune disease” (Hoffmann-La Roche Inc., priority 2018, dated 2023)
